From the OligoGym collection
Values joined by “and” are separate entries in the source; they are usually repeats but may differ in a detail not shown here. Equal values may be shown once. After the bases stand the sugars from the 5' end (letter, count) and the backbone: PS all phosphorothioate, else s phosphorothioate and o phosphodiester by linkage. Methylation of C is not given here. k = constrained ethyl (cEt); d = 2'-deoxy (DNA)

Target: MALAT1
Conditions: ASO, A431, 0.005 µM

Question: CTAAGATGCTAGCTTG (sugars k3 d10 k3, PS) was tested. Which target mRNA inhibition did it give?
Answer: The target mRNA inhibition was -26%.

Question: ATATTTTGCCCCCACC (sugars k3 d10 k3, PS) was tested. Which target mRNA inhibition did it give?
Answer: The target mRNA inhibition was 2%.

Question: For GATGGACATTGCCTCT (sugars k3 d10 k3, PS), which target mRNA inhibition is on record?
Answer: The target mRNA inhibition was 37%.

Question: For CATCACCAAATTGCAC (sugars k3 d10 k3, PS), which target mRNA inhibition is on record?
Answer: The target mRNA inhibition was 28%.

Question: AGAACCACACACTACC (sugars k3 d10 k3, PS) was tested. Which target mRNA inhibition did it give?
Answer: Its target mRNA inhibition is 23%.

Question: ATAGCAGCGGGATCAG (sugars k3 d10 k3, PS) was tested. Which target mRNA inhibition did it give?
Answer: The target mRNA inhibition was 57%.

Question: Which target mRNA inhibition does the source give for ATGTTAAGAGAAGCCC (sugars k3 d10 k3, PS) here?
Answer: Its target mRNA inhibition is -17%.

Question: For CTGCAAACTTTAGACA (sugars k3 d10 k3, PS), which target mRNA inhibition is on record?
Answer: The target mRNA inhibition was 7%.

Question: Which target mRNA inhibition does the source give for AGATAATGTTCTCATC (sugars k3 d10 k3, PS) here?
Answer: Its target mRNA inhibition is 11%.

Question: How did the target mRNA inhibition turn out when TTATAGCTTGACAAGC (sugars k3 d10 k3, PS) was run?
Answer: The target mRNA inhibition was 37%.

Question: For CGTGTTGTTTTCTCAG (sugars k3 d10 k3, PS), which target mRNA inhibition is on record?
Answer: The target mRNA inhibition was 23%.

Question: Which target mRNA inhibition does the source give for AGACCAACCCCCAGTT (sugars k3 d10 k3, PS) here?
Answer: The target mRNA inhibition was 0%.

Question: With CTACCTTCATCACCAA (sugars k3 d10 k3, PS) as the sequence, how does the target mRNA inhibition read?
Answer: The target mRNA inhibition was 2%.

Question: With CCAAAAGCTCTATACT (sugars k3 d10 k3, PS) as the sequence, how does the target mRNA inhibition read?
Answer: The target mRNA inhibition was 12%.

Question: TGTTAAGAGAAGCCCA (sugars k3 d10 k3, PS) was tested. Which target mRNA inhibition did it give?
Answer: The target mRNA inhibition was 2%.

Question: Which target mRNA inhibition does the source give for AGGAAGGCTCCATGGT (sugars k3 d10 k3, PS) here?
Answer: Its target mRNA inhibition is 11%.

Question: With TCCAGTCTACAAGTTA (sugars k3 d10 k3, PS) as the sequence, how does the target mRNA inhibition read?
Answer: Its target mRNA inhibition is 31%.

Question: For CGATTATGGATCATGC (sugars k3 d10 k3, PS), which target mRNA inhibition is on record?
Answer: Its target mRNA inhibition is 44% and 57%.

Question: With TCTTACTTGATAATAC (sugars k3 d10 k3, PS) as the sequence, how does the target mRNA inhibition read?
Answer: Its target mRNA inhibition is 10%.

Question: How did the target mRNA inhibition turn out when GTTAACATGCAAACTT (sugars k3 d10 k3, PS) was run?
Answer: The target mRNA inhibition was 13%.

Question: Which target mRNA inhibition does the source give for GGAATTATTATATGCT (sugars k3 d10 k3, PS) here?
Answer: The target mRNA inhibition was 54%.

Question: How did the target mRNA inhibition turn out when AGAGCTACTTAGCTGT (sugars k3 d10 k3, PS) was run?
Answer: Its target mRNA inhibition is 16%.

Question: Which target mRNA inhibition does the source give for GCTTATTCCCCAATGG (sugars k3 d10 k3, PS) here?
Answer: The target mRNA inhibition was 73% and 48% and 50%.

Question: Which target mRNA inhibition does the source give for AAATCCTGATCTGGTC (sugars k3 d10 k3, PS) here?
Answer: Its target mRNA inhibition is 27%.

Question: For TCCTTAGTTGGCATCA (sugars k3 d10 k3, PS), which target mRNA inhibition is on record?
Answer: Its target mRNA inhibition is 76% and 68%.

Question: How did the target mRNA inhibition turn out when TTATAGACGGAGAACA (sugars k3 d10 k3, PS) was run?
Answer: The target mRNA inhibition was 8%.

Question: How did the target mRNA inhibition turn out when CTATAAGGACAGCTAA (sugars k3 d10 k3, PS) was run?
Answer: The target mRNA inhibition was 4%.

Question: How did the target mRNA inhibition turn out when CCAACTAAGCGAATGG (sugars k3 d10 k3, PS) was run?
Answer: Its target mRNA inhibition is 18%.

Question: Which target mRNA inhibition does the source give for CCTACCACTCCCAATT (sugars k3 d10 k3, PS) here?
Answer: The target mRNA inhibition was 21%.

Question: GGTACTTCAAGCATTC (sugars k3 d10 k3, PS) was tested. Which target mRNA inhibition did it give?
Answer: The target mRNA inhibition was 44%.

Question: With ATAGTGTAAAACATTG (sugars k3 d10 k3, PS) as the sequence, how does the target mRNA inhibition read?
Answer: Its target mRNA inhibition is 0%.

Question: With AGCCAAGCACTCATAT (sugars k3 d10 k3, PS) as the sequence, how does the target mRNA inhibition read?
Answer: The target mRNA inhibition was 17%.

Question: Which target mRNA inhibition does the source give for TACTTCATTACCCCAA (sugars k3 d10 k3, PS) here?
Answer: The target mRNA inhibition was 34%.

Question: With CCCACAAGGATCCAAG (sugars k3 d10 k3, PS) as the sequence, how does the target mRNA inhibition read?
Answer: Its target mRNA inhibition is 9%.

Question: For CTCATACACTCACTAG (sugars k3 d10 k3, PS), which target mRNA inhibition is on record?
Answer: Its target mRNA inhibition is 0%.

Question: With TCCAAGAACTAGCACC (sugars k3 d10 k3, PS) as the sequence, how does the target mRNA inhibition read?
Answer: Its target mRNA inhibition is -5%.

Question: How did the target mRNA inhibition turn out when CCACAACAATTTAGAG (sugars k3 d10 k3, PS) was run?
Answer: Its target mRNA inhibition is -27%.

Question: With CTAGACAGACCTAAGG (sugars k3 d10 k3, PS) as the sequence, how does the target mRNA inhibition read?
Answer: The target mRNA inhibition was 2%.

Question: How did the target mRNA inhibition turn out when CCTCATGCTACTCTTC (sugars k3 d10 k3, PS) was run?
Answer: The target mRNA inhibition was 54%.

Question: AGTGTGATAGTTCAGG (sugars k3 d10 k3, PS) was tested. Which target mRNA inhibition did it give?
Answer: The target mRNA inhibition was 7%.

Question: Which target mRNA inhibition does the source give for AACAAGTAAGCCCCAC (sugars k3 d10 k3, PS) here?
Answer: Its target mRNA inhibition is 11%.

Question: Which target mRNA inhibition does the source give for AGCATACCTTAACATC (sugars k3 d10 k3, PS) here?
Answer: The target mRNA inhibition was 19%.

Question: Which target mRNA inhibition does the source give for CAGTCTACAAGTTACA (sugars k3 d10 k3, PS) here?
Answer: Its target mRNA inhibition is 27%.

Question: With GAAGTGTACTATCCCA (sugars k3 d10 k3, PS) as the sequence, how does the target mRNA inhibition read?
Answer: Its target mRNA inhibition is 72% and 93%.

Question: How did the target mRNA inhibition turn out when CCAATACTTGTCTTAG (sugars k3 d10 k3, PS) was run?
Answer: The target mRNA inhibition was 64% and 52%.

Question: AATCGCACTGGCTCCT (sugars k3 d10 k3, PS) was tested. Which target mRNA inhibition did it give?
Answer: Its target mRNA inhibition is 25%.

Question: How did the target mRNA inhibition turn out when TCTCAGGGTTATGCTT (sugars k3 d10 k3, PS) was run?
Answer: The target mRNA inhibition was 59% and 81%.

Question: How did the target mRNA inhibition turn out when CTATTGTCCCATAACT (sugars k3 d10 k3, PS) was run?
Answer: Its target mRNA inhibition is 38%.

Question: With TAGATTCCGTAACTTT (sugars k3 d10 k3, PS) as the sequence, how does the target mRNA inhibition read?
Answer: Its target mRNA inhibition is 58%.

Question: CAGCTTCCGCTAAGAT (sugars k3 d10 k3, PS) was tested. Which target mRNA inhibition did it give?
Answer: The target mRNA inhibition was -11%.

Question: Which target mRNA inhibition does the source give for GATAACGAAGAGATAC (sugars k3 d10 k3, PS) here?
Answer: Its target mRNA inhibition is 19%.

Question: Which target mRNA inhibition does the source give for TAACAGCACATCATGC (sugars k3 d10 k3, PS) here?
Answer: The target mRNA inhibition was 21%.

Question: For GGATGAAATGCCTCTG (sugars k3 d10 k3, PS), which target mRNA inhibition is on record?
Answer: The target mRNA inhibition was 24%.

Question: With CTCACATGCCAGTTAC (sugars k3 d10 k3, PS) as the sequence, how does the target mRNA inhibition read?
Answer: Its target mRNA inhibition is 51%.

Question: Which target mRNA inhibition does the source give for GAGGCAAACGAAACAT (sugars k3 d10 k3, PS) here?
Answer: Its target mRNA inhibition is 1%.

Question: GACAGATTAGTAGTCA (sugars k3 d10 k3, PS) was tested. Which target mRNA inhibition did it give?
Answer: Its target mRNA inhibition is -12%.

Question: TTGATCCCAACTCATC (sugars k3 d10 k3, PS) was tested. Which target mRNA inhibition did it give?
Answer: Its target mRNA inhibition is 33%.

Question: How did the target mRNA inhibition turn out when CGTAAACACCCTCATC (sugars k3 d10 k3, PS) was run?
Answer: The target mRNA inhibition was 32%.

Question: For GCCCCAACACTGAACT (sugars k3 d10 k3, PS), which target mRNA inhibition is on record?
Answer: The target mRNA inhibition was 11%.

Question: For AAATTACACCAGTCCT (sugars k3 d10 k3, PS), which target mRNA inhibition is on record?
Answer: The target mRNA inhibition was 45%.

Question: Which target mRNA inhibition does the source give for AAATACGACTGCTTAA (sugars k3 d10 k3, PS) here?
Answer: The target mRNA inhibition was 22%.

Question: CTAACCCAGTTTGTCA (sugars k3 d10 k3, PS) was tested. Which target mRNA inhibition did it give?
Answer: The target mRNA inhibition was 35%.

Question: For TCCAGGACTTGGCAGT (sugars k3 d10 k3, PS), which target mRNA inhibition is on record?
Answer: The target mRNA inhibition was 23%.

Question: With GGAGGTATGACATATA (sugars k3 d10 k3, PS) as the sequence, how does the target mRNA inhibition read?
Answer: The target mRNA inhibition was 68% and 84%.

Question: Which target mRNA inhibition does the source give for GCTTACACACAACTGA (sugars k3 d10 k3, PS) here?
Answer: The target mRNA inhibition was 50%.

Question: With GTAACTACCAGCCATT (sugars k3 d10 k3, PS) as the sequence, how does the target mRNA inhibition read?
Answer: The target mRNA inhibition was 45%.

Question: With TAAATCATTGGGAGTT (sugars k3 d10 k3, PS) as the sequence, how does the target mRNA inhibition read?
Answer: The target mRNA inhibition was 38%.

Question: For CTTGAATGCAAACTAC (sugars k3 d10 k3, PS), which target mRNA inhibition is on record?
Answer: The target mRNA inhibition was -6%.

Question: For CCAAGCCAAGCCGCCT (sugars k3 d10 k3, PS), which target mRNA inhibition is on record?
Answer: Its target mRNA inhibition is 5%.

Question: For GCGGTACACTCCTTCT (sugars k3 d10 k3, PS), which target mRNA inhibition is on record?
Answer: The target mRNA inhibition was 28%.

Question: Which target mRNA inhibition does the source give for ATTACCCCAACTAAAC (sugars k3 d10 k3, PS) here?
Answer: Its target mRNA inhibition is 9%.

Question: How did the target mRNA inhibition turn out when CTAATCACTGTCAATT (sugars k3 d10 k3, PS) was run?
Answer: Its target mRNA inhibition is -1%.

Question: How did the target mRNA inhibition turn out when TCACCTTCGGTTTAAT (sugars k3 d10 k3, PS) was run?
Answer: Its target mRNA inhibition is 28%.

Question: GGGAACACAACTTTTA (sugars k3 d10 k3, PS) was tested. Which target mRNA inhibition did it give?
Answer: Its target mRNA inhibition is 33%.

Question: AACGAAACATTGGCAC (sugars k3 d10 k3, PS) was tested. Which target mRNA inhibition did it give?
Answer: Its target mRNA inhibition is 48%.

Question: How did the target mRNA inhibition turn out when ATCACTTTAGAGGCTT (sugars k3 d10 k3, PS) was run?
Answer: The target mRNA inhibition was 53%.

Question: ACGCAACTGAGCCCCA (sugars k3 d10 k3, PS) was tested. Which target mRNA inhibition did it give?
Answer: Its target mRNA inhibition is -44%.

Question: Which target mRNA inhibition does the source give for GATTCACTGAATCCAC (sugars k3 d10 k3, PS) here?
Answer: Its target mRNA inhibition is 8%.

Question: TTTGGCATATGCAGAT (sugars k3 d10 k3, PS) was tested. Which target mRNA inhibition did it give?
Answer: The target mRNA inhibition was 24%.

Question: Which target mRNA inhibition does the source give for GCCTCTTCATTGTATT (sugars k3 d10 k3, PS) here?
Answer: Its target mRNA inhibition is 10%.

Question: With TGCGCTTAAGAGGGCA (sugars k3 d10 k3, PS) as the sequence, how does the target mRNA inhibition read?
Answer: The target mRNA inhibition was 7%.
